From ChEMBL document CHEMBL1201862, “PubChem BioAssay data set” (2004)
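These data come from cells grown in 96-well plates and exposed to compound for 48 hours at five concentrations. The concentration for 50% growth inhibition is given as GI50.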 Calls of active or inactive are those of the source. Rule as the data show it: active = GI50 up to about 1.1 µM and inactive = higher.

What was measured:
Assay in all cases: growth of human tumour cells (NCI), 48 h
[1] = tested on: 786-0
[2] = tested on: A549
[3] = tested on: CAKI-1
[4] = tested on: HCC 2998
[5] = tested on: HOP-62
[6] = tested on: Malme-3M
[7] = tested on: NCI-H460
[8] = tested on: OVCAR-3
[9] = tested on: OVCAR-8
[10] = tested on: RXF 393
[11] = tested on: SK-OV-3
[12] = tested on: SN12C
[13] = tested on: SR
[14] = tested on: SW-620
[15] = tested on: UO-31
[16] = tested on: ACHN

Structure (SMILES) | GI50 [1] | GI50 [2] | GI50 [3] | GI50 [4] | GI50 [5] | GI50 [6] | GI50 [7] | GI50 [8] | GI50 [9] | GI50 [10] | GI50 [11] | GI50 [12] | GI50 [13] | GI50 [14] | GI50 [15] | GI50 [16]
COC(=O)C(=O)OC1(C(C)=O)CC2(c3ccccc3)OC1(c1ccccc1)c1ccccc12 (centres undefined) | 13.5 µM (inactive) | 14.8 µM (inactive) | 17.9 µM (inactive) | 16.7 µM (inactive) | 18.4 µM (inactive) | 19.1 µM (inactive) | 18.4 µM (inactive) | 13.9 µM (inactive) | 15.9 µM (inactive) | 15.4 µM (inactive) | 29.9 µM (inactive) | 15 µM (inactive) | 28.1 µM (inactive) | 16.4 µM (inactive) | 14.2 µM (inactive) | 
Cc1nc2ccccc2c(=O)n1NC(=S)Nc1ccccc1 | > 100 µM (inactive) | > 100 µM (inactive) | > 100 µM (inactive) |  | > 100 µM (inactive) | > 100 µM (inactive) | > 100 µM (inactive) |  | > 100 µM (inactive) | 75.7 µM (inactive) | > 100 µM (inactive) | > 100 µM (inactive) | > 100 µM (inactive) | > 100 µM (inactive) | 88.9 µM (inactive) | > 100 µM (inactive)
N#CC(C(=O)/C(=N/N)C(C#N)c1ccc(Cl)cc1)c1ccc(Cl)cc1 (centres undefined) | > 100 µM (inactive) | > 100 µM (inactive) |  | > 100 µM (inactive) | > 100 µM (inactive) | > 100 µM (inactive) | > 100 µM (inactive) | > 100 µM (inactive) | > 100 µM (inactive) | > 100 µM (inactive) |  | > 100 µM (inactive) |  | > 100 µM (inactive) | > 100 µM (inactive) | > 100 µM (inactive)
Cc1nc2sccn2c1C(=O)NNC(N)=S | > 100 µM (inactive) | > 100 µM (inactive) | > 100 µM (inactive) | > 100 µM (inactive) | > 100 µM (inactive) | > 100 µM (inactive) | > 100 µM (inactive) | > 100 µM (inactive) | > 100 µM (inactive) | > 100 µM (inactive) | > 100 µM (inactive) | > 100 µM (inactive) | > 100 µM (inactive) | > 100 µM (inactive) |  | > 100 µM (inactive)
Clc1ccccc1C1SCc2nc3ccccc3n21 (centres undefined) | 25.7 µM (inactive) | 32.6 µM (inactive) | 25.4 µM (inactive) |  | 19.3 µM (inactive) | 17.7 µM (inactive) | 30.1 µM (inactive) | 14.1 µM (inactive) | 24.2 µM (inactive) | 24.5 µM (inactive) | 27.6 µM (inactive) | 18 µM (inactive) | 19.4 µM (inactive) | 43.5 µM (inactive) |  | 22.1 µM (inactive)
C=C(COC(C)=O)CC(/C=C(\C)CCC=C(C)C)OC(C)=O (centres undefined) | > 100 µM (inactive) | > 100 µM (inactive) |  | > 100 µM (inactive) | > 100 µM (inactive) |  | > 100 µM (inactive) | > 100 µM (inactive) | > 100 µM (inactive) | > 100 µM (inactive) | > 100 µM (inactive) | > 100 µM (inactive) |  | > 100 µM (inactive) | > 100 µM (inactive) | > 100 µM (inactive)
CC(C)=CC(=O)C1c2cccc(O)c2C(=O)c2c(O)cc(C)cc21 (centres undefined) | 5.06 µM (inactive) | 1.92 µM (inactive) | 5.25 µM (inactive) | 1.2 µM (inactive) | 2.86 µM (inactive) | 2.76 µM (inactive) | 2.32 µM (inactive) | 1.99 µM (inactive) | 2.81 µM (inactive) | 2.16 µM (inactive) | 2.81 µM (inactive) | 5.71 µM (inactive) |  | 3.33 µM (inactive) | 2.09 µM (inactive) | 2.12 µM (inactive)
CCOC(=N)CC(=O)c1ccccc1 | > 100 µM (inactive) | > 100 µM (inactive) | > 100 µM (inactive) | > 100 µM (inactive) | > 100 µM (inactive) | > 100 µM (inactive) |  | > 100 µM (inactive) | > 100 µM (inactive) | > 100 µM (inactive) | > 100 µM (inactive) | > 100 µM (inactive) | > 100 µM (inactive) | > 100 µM (inactive) | > 100 µM (inactive) | > 100 µM (inactive)
COC1OC(COCc2ccc(Cl)cc2)C(OCc2ccc(Cl)cc2)C1O (centres undefined) | 15 µM (inactive) | 17.3 µM (inactive) | 18 µM (inactive) | 17.7 µM (inactive) | 17.5 µM (inactive) | 15.8 µM (inactive) | 17.4 µM (inactive) | 19.7 µM (inactive) | 26.2 µM (inactive) | 15.1 µM (inactive) | 33.9 µM (inactive) | 14.9 µM (inactive) |  | 15.4 µM (inactive) | 15.1 µM (inactive) | 18.6 µM (inactive)
CCCCCCC(C)OC(=O)/C=C(\CC(=O)OC(C)CCCCCC)C(=O)OC(C)CCCCCC (centres undefined) | > 100 µM (inactive) | > 100 µM (inactive) | > 100 µM (inactive) | > 100 µM (inactive) | > 100 µM (inactive) | > 100 µM (inactive) | > 100 µM (inactive) | > 100 µM (inactive) | > 100 µM (inactive) | > 100 µM (inactive) | > 100 µM (inactive) | > 100 µM (inactive) |  | > 100 µM (inactive) | > 100 µM (inactive) | > 100 µM (inactive)
COc1cc([C@@H]2c3cc4c(cc3[C@@H](NC(=O)c3ccc(N)cc3)C3COC(=O)[C@@H]32)OCO4)cc(OC)c1O (some centres undefined) | 1.36 µM (inactive) | 0.119 µM (active) | 5.4 µM (inactive) | 3.61 µM (inactive) | 0.535 µM (active) | 2.51 µM (inactive) | < 0.01 µM (active) | 7.46 µM (inactive) | 2.53 µM (inactive) | 15.7 µM (inactive) | 2.14 µM (inactive) | 0.853 µM (active) |  | 1.03 µM (active) | 11.9 µM (inactive) | 0.597 µM (active)
COC12OCCN(CCO)C1=CC(=O)C1(C)N=NC(C)C12 (centres undefined) | > 100 µM (inactive) | > 100 µM (inactive) | > 100 µM (inactive) | > 100 µM (inactive) |  | > 100 µM (inactive) | > 100 µM (inactive) | > 100 µM (inactive) | > 100 µM (inactive) | > 100 µM (inactive) | > 100 µM (inactive) | > 100 µM (inactive) |  | > 100 µM (inactive) | > 100 µM (inactive) | > 100 µM (inactive)
CSCC1CC(c2ccc(Cl)cc2)=NO1 (centres undefined) | > 100 µM (inactive) | > 100 µM (inactive) | > 100 µM (inactive) | > 100 µM (inactive) | > 100 µM (inactive) | > 100 µM (inactive) | > 100 µM (inactive) | > 100 µM (inactive) | > 100 µM (inactive) |  | > 100 µM (inactive) | > 100 µM (inactive) | > 100 µM (inactive) | > 100 µM (inactive) | > 100 µM (inactive) | > 100 µM (inactive)
OC/C=C(\I)CCCOCOCc1ccccc1 | 28.8 µM (inactive) | 32 µM (inactive) |  | 34 µM (inactive) | 42.5 µM (inactive) |  | 40.7 µM (inactive) | 30.8 µM (inactive) | 41.4 µM (inactive) | 16.4 µM (inactive) | > 100 µM (inactive) | 42.9 µM (inactive) |  | 44 µM (inactive) | 25.4 µM (inactive) | 32.3 µM (inactive)
CCCCCCCCCCCCC(Br)C(=O)NCC(N)=O (centres undefined) | 6.85 µM (inactive) | 15.6 µM (inactive) |  | 16.1 µM (inactive) | 15 µM (inactive) | 13.2 µM (inactive) | 16 µM (inactive) | 15 µM (inactive) | 4.79 µM (inactive) | 3.6 µM (inactive) | 41.6 µM (inactive) | 1.73 µM (inactive) |  | 16 µM (inactive) | 2.09 µM (inactive) | 15 µM (inactive)
O=C(CC(=O)C(F)(F)F)c1csc2ccccc12 | 36.7 µM (inactive) | 62.2 µM (inactive) |  | 48.9 µM (inactive) | 22.5 µM (inactive) | 26.4 µM (inactive) | 19.1 µM (inactive) | 40.9 µM (inactive) | 18.5 µM (inactive) | 3.13 µM (inactive) | 18 µM (inactive) | 25 µM (inactive) | 17.5 µM (inactive) | 38.5 µM (inactive) | 27.9 µM (inactive) | 34.5 µM (inactive)
O=c1oc2c3ccc4ccccc4c3n(CCN3CCOCC3)c2c2ccccc12 | 6.44 µM (inactive) | 5.42 µM (inactive) | 6.78 µM (inactive) | > 100 µM (inactive) | 26.4 µM (inactive) | > 100 µM (inactive) | 0.755 µM (active) | > 100 µM (inactive) | > 100 µM (inactive) |  | > 100 µM (inactive) |  | 1.15 µM (inactive) | 5.73 µM (inactive) | 0.622 µM (active) | 5.6 µM (inactive)
COc1ccc(/N=N/c2c(-c3ccccc3)nn(C(=O)CC(=O)Nc3ccccc3Cl)c2-c2ccccc2)cc1 | > 100 µM (inactive) | > 100 µM (inactive) | > 100 µM (inactive) | > 100 µM (inactive) | > 100 µM (inactive) | > 100 µM (inactive) | > 100 µM (inactive) | 36.9 µM (inactive) | > 100 µM (inactive) | > 100 µM (inactive) |  | > 100 µM (inactive) | 2.82 µM (inactive) | > 100 µM (inactive) | 42.9 µM (inactive) | > 100 µM (inactive)
O=C1Nc2nc3ccccc3n2N=C2CCCC12 (centres undefined) | > 100 µM (inactive) | > 100 µM (inactive) | > 100 µM (inactive) | > 100 µM (inactive) | > 100 µM (inactive) | > 100 µM (inactive) | > 100 µM (inactive) | > 100 µM (inactive) | > 100 µM (inactive) | > 100 µM (inactive) | > 100 µM (inactive) | > 100 µM (inactive) |  | > 100 µM (inactive) | > 100 µM (inactive) | > 100 µM (inactive)
